Data on 1 compound can be found in patent publication US6057117A, “Identification and use of selective inhibitors of glycogen synthase kinase 3” (Chiron Corporation, priority 1999, dated 2000).

Holding throughout (format): cell-based
Experiment [1] relates to HepG2 liver cells. Nature of the experiment: Insulin- and glucose-stimulated glycogen synthase activity in stable tissue culture cells. Particulars: insulin and glucose added, in the presence of the inhibitor. The source says: (§1) In these assays measurement of the effectiveness of a given inhibitor is accomplished by the effect of inhibitors on glycogen synthase activity as described in Thomas et al, Anal. Biochem. 25:486-99 (1968), glucose uptake as described in Begun and Ragolia Endocrinology 137: 2441-6 (1996), Claraldi et al, J. Clin. Invest. 96:2820-27 (1995), Hara et al, PNAS 91:7415-19 (1994), Robinson and James, Am. J. Physiol. 263:E383-93(1992), and Sasoaka et al, JBC 270: 10885-92 (1995) and glucose incorporation into glycogen as described in Begun and Ragolia Endocrinology 137: 2441-6 (1996), Sasoaka et al, JBC 270: 10885-92 (1995), and Takata et al, JBC 267:9065-70 (1992).
(§2) Assays for glucose uptake and glycogen synthesis can be conducted as described for cell-based assays generally. To measure glucose uptake and glycogen synthesis, a variety of stable tissue culture cell lines that respond to insulin stimulation by increasing the synthesis of glycogen and increasing the rate of glucose uptake from the medium can be used. These include HepG2 liver cells, CHO-IR cells, and Hirc cells. Under appropriate conditions the addition of insulin and glucose to HepG2 cells stimulates glycogen synthase activity and this stimulation is potentiated in the presence of the GSK3 inhibitor iodotubercidin.

Experiment [2] relates to HepG2 liver cells. The experiment in a line: Glucose uptake in stable tissue culture cells.
Text: as §1, §2

A further experiment concerns Drosophila cells. Nature of the experiment: β-catenin stabilization assay of intracellular GSK3 activity (western blot). To be noted: added to Drosophila cells; detected on a western blot. The source says:
Other assays that test functional GSK3 also provide a further test of intracellular GSK3 activity. These assays rely on the ability to observe indirect consequences of GSK3 activity within cells. An example of such an assay involves β-catenin stabilization. Cellular GSK3 activity leads to the destabilization of cytosolic pools of β-catenin in certain types of cell. Consequently, inhibition of GSK3 results in β-catenin stabilization and accumulation, which can be detected on a western blot. […] Similarly, LiCl in the cell culture medium causes an increase in intracellular β-catenin levels as described in Stambolic et al, Cur. Biol. 6(12):1664-8 (1996).

For `Nc1ncnc2c1c(I)cn2[C@@H]1O[C@H](CO)[C@@H](O)[C@H]1O` [iodotubercidin], the “stimulation of glycogen synthase activity by insulin and glucose” value with HepG2 liver cells [1] is “potentiated”. Also, the “response of glucose uptake to insulin, glucose and inhibitor” value in the experiment with HepG2 liver cells [2] was “as much as six fold”. The β-catenin accumulation result in the experiment with Drosophila cells is “leads to β-catenin accumulation”.
